Values of other authors as cited in US12528029B2, “Separating and quantifying unbound target analytes from biological samples” (ARUP Laboratories, Inc., priority 2017, dated 2026).

How the values were obtained:
albumin = biological target: T1, albumin (Homo sapiens, UniProt P02768)
T1 construct: host or cells: circulating blood / serum

[1] = biological target: T2, vitamin D binding protein (VDBP) (Homo sapiens, UniProt P02774); conditions: serum
T2 construct: host or cells: circulating blood / serum
T2 sequence (P02774 17-474): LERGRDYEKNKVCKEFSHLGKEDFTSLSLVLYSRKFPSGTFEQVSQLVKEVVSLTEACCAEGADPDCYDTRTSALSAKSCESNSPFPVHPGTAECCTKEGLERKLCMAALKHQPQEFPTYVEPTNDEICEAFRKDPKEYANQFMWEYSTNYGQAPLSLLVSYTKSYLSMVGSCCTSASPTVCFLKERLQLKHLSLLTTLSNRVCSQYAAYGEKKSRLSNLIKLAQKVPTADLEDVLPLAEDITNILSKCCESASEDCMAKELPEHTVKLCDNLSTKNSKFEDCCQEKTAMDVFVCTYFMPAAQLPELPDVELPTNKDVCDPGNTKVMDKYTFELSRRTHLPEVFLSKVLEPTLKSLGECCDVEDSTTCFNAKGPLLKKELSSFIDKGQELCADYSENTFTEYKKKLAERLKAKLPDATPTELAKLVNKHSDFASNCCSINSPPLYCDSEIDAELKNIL

[2] = biological target: T3, sex hormone-binding globulin (SHBG) (Homo sapiens, UniProt P04278); conditions: share of the protein-bound Te; remainder weakly bound to albumin
T3 sequence (P04278 30-402): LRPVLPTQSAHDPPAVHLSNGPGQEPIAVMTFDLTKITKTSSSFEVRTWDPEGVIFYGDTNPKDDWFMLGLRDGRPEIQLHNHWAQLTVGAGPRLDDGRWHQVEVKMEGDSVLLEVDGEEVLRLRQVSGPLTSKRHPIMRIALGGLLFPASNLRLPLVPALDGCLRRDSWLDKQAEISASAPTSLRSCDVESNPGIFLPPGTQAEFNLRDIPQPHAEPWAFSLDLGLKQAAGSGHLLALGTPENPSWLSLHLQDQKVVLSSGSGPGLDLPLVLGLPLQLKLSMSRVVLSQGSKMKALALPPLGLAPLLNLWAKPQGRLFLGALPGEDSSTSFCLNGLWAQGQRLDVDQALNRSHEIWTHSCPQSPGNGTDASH

T1 sequence (P02768 25-609): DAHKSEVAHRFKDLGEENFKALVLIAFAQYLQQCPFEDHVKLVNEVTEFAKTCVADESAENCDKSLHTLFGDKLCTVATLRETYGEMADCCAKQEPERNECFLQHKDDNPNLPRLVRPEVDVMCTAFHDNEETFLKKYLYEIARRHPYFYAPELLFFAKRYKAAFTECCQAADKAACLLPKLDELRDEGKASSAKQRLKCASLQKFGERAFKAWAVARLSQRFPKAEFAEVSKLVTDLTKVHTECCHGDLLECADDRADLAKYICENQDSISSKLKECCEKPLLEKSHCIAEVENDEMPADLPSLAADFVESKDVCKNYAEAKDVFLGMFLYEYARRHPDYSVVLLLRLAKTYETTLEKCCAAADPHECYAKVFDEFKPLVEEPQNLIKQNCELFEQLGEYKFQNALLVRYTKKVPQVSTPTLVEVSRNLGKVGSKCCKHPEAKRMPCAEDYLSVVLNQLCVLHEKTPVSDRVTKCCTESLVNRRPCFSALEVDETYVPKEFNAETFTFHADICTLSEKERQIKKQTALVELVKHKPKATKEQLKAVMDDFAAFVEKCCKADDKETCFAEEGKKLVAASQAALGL

25-hydroxy vitamin D [25OHD]
25OHD circulating in blood bound to albumin (albumin): 10-15% | circulating 25OHD that is free (not protein bound) (circulating): Less than 0.1% | circulating vitamin D in the form of 25OHD, tightly bound to VDBP [1]: 85-90%

C[C@]12CC[C@H]3[C@@H](CCC4=CC(=O)CC[C@@]43C)[C@@H]1CC[C@@H]2O [Te, Testosterone]
fraction of Te present in unbound, free form (circulating in blood): 1-3% | protein bound Te strongly bound to SHBG [2]: 60-70%
